The values below come from ChEMBL document CHEMBL4184186, “Targeting protein-protein interaction between MLL1 and reciprocal proteins for leukemia therapy” (Bioorg Med Chem, 2018).

A word on the IC50: it is the concentration that inhibits the measured activity by half. A lower IC50 goes with greater potency. What is called Ki is a dissociation constant, usually derived from enzyme kinetics or from competition with a known ligand. Low readings indicate higher affinity, high ones lower affinity. As a reminder, the Kd is the concentration at which binding is half-saturated. The low end stands for tighter binding, the high end for weaker binding.

Assay [1] addresses T1, Menin (Homo sapiens, UniProt O00255).
T1 sequence (O00255 whole entry): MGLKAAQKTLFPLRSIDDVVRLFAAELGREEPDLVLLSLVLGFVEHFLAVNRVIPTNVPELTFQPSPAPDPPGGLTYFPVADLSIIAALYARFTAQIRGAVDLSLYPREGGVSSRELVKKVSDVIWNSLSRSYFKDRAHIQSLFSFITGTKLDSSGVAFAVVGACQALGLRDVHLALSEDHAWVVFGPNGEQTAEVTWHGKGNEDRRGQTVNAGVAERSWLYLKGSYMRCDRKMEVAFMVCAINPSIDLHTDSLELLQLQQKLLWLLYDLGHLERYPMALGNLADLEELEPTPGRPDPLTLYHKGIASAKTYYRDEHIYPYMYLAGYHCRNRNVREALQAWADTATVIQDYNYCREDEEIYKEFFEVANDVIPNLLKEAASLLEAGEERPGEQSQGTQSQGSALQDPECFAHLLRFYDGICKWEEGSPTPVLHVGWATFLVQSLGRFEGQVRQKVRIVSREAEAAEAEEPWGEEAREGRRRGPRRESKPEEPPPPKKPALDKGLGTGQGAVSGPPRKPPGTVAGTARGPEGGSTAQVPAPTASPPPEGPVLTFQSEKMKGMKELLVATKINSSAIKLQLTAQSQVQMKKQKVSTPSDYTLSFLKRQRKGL
Description: Displacement of FITC-MBM1 from menin (unknown origin) measured after 1 hr by fluorescence polarization assay

Assay [2] addresses T1, Menin. Put plainly: Displacement of FITC-MBM1 from full length human menin measured after 2 hrs by fluorescence polarization assay. For orientation: Fluorescence polarisation rises when a labelled molecule tumbles more slowly, as on binding a larger partner.
The target in assay [3] is Histone-lysine N-methyltransferase 2A (Homo sapiens, UniProt Q03164). Put plainly: Inhibition of MLL1 binding to N-terminal His-tagged […] 23 deletion mutant (24 to 334 residues) (unknown origin) expressed in Escherichia coli Rosetta 2 (DE3) pLysS cells by fluorescence polarization assay.
Assay [4] has as its target T1, Menin. Put plainly: Binding affinity to menin (unknown origin) by isothermal titration calorimetry. Background: Isothermal titration calorimetry measures the heat released or taken up as one component is titrated into another.
Assay [5] concerns the target T1, Menin. Put plainly: Displacement of FITC-MBM1 from full length human menin measured after 1 hr by fluorescence polarization assay.

SMILES strings stand for the structures.

Sequence of Histone-lysine N-methyltransferase 2A (Q03164 1-2718 limits assumed, stated change not applied): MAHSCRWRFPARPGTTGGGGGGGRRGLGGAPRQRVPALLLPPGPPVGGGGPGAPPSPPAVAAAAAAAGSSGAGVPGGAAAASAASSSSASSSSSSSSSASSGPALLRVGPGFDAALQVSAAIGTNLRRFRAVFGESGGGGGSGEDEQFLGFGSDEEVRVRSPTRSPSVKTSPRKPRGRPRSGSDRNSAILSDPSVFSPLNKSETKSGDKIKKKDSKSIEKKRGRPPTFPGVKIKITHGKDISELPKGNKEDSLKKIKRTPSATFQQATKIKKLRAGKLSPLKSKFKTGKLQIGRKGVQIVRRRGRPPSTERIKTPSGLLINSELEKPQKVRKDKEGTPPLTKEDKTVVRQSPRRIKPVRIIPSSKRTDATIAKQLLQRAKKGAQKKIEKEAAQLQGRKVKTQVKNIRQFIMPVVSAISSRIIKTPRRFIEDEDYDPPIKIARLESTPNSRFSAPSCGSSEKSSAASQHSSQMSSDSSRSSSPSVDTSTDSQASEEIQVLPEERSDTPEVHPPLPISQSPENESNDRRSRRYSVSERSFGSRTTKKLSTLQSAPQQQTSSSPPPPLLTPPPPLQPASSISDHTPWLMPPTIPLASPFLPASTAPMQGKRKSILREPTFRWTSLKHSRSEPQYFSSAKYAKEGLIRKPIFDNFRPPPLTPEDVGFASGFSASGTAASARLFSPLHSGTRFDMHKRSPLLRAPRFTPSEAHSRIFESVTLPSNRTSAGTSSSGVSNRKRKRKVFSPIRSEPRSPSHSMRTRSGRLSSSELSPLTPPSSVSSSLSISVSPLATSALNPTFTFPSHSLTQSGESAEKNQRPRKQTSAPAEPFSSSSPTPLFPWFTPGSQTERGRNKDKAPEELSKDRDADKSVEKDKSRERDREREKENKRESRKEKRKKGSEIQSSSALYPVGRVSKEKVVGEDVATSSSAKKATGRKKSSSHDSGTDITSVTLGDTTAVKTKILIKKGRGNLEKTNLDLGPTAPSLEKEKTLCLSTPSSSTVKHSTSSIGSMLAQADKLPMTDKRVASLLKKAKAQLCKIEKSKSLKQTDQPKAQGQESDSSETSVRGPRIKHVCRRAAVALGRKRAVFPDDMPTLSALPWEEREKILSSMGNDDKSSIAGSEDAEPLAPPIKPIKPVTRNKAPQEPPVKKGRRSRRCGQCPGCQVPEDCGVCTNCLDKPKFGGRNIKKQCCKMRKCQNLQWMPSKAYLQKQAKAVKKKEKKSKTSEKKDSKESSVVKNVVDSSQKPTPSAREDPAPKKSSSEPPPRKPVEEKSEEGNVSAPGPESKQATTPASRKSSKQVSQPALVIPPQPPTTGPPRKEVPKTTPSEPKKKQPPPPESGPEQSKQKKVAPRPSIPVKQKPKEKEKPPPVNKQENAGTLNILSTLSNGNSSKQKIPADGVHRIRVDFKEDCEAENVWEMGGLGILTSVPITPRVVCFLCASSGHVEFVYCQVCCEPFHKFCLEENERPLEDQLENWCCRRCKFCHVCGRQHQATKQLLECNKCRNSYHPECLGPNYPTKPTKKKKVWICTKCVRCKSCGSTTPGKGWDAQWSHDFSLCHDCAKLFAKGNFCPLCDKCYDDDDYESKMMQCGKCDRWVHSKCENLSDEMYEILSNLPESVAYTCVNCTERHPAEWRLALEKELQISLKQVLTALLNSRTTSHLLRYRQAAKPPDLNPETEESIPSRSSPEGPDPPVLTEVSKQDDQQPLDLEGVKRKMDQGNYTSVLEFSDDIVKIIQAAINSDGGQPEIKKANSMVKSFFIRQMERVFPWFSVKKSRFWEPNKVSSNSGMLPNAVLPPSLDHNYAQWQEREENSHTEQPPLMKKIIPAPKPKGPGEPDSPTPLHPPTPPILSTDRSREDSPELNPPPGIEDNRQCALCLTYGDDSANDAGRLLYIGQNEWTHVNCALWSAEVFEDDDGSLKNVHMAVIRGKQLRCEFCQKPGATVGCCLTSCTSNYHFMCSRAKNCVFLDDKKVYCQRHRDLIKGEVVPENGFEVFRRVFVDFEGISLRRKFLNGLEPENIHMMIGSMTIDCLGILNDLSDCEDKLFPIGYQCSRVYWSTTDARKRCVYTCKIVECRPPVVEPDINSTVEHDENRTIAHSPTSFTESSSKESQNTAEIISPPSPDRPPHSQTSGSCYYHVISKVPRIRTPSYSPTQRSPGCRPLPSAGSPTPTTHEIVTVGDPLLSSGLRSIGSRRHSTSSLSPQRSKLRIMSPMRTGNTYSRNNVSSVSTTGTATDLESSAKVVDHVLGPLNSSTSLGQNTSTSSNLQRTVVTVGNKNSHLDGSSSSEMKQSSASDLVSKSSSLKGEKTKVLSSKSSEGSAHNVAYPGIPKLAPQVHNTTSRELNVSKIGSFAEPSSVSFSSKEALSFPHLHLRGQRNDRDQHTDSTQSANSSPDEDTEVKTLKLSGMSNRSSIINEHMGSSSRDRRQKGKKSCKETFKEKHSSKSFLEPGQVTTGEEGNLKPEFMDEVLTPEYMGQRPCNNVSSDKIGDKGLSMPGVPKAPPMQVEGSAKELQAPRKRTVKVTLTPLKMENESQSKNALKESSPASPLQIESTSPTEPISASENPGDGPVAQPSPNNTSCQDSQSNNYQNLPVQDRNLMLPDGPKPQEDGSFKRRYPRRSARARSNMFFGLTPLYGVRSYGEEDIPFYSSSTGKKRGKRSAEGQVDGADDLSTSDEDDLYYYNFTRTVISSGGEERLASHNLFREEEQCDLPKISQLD
Sequence of Histone-lysine N-methyltransferase 2A (Q03164 2719-3969 limits assumed, stated change not applied): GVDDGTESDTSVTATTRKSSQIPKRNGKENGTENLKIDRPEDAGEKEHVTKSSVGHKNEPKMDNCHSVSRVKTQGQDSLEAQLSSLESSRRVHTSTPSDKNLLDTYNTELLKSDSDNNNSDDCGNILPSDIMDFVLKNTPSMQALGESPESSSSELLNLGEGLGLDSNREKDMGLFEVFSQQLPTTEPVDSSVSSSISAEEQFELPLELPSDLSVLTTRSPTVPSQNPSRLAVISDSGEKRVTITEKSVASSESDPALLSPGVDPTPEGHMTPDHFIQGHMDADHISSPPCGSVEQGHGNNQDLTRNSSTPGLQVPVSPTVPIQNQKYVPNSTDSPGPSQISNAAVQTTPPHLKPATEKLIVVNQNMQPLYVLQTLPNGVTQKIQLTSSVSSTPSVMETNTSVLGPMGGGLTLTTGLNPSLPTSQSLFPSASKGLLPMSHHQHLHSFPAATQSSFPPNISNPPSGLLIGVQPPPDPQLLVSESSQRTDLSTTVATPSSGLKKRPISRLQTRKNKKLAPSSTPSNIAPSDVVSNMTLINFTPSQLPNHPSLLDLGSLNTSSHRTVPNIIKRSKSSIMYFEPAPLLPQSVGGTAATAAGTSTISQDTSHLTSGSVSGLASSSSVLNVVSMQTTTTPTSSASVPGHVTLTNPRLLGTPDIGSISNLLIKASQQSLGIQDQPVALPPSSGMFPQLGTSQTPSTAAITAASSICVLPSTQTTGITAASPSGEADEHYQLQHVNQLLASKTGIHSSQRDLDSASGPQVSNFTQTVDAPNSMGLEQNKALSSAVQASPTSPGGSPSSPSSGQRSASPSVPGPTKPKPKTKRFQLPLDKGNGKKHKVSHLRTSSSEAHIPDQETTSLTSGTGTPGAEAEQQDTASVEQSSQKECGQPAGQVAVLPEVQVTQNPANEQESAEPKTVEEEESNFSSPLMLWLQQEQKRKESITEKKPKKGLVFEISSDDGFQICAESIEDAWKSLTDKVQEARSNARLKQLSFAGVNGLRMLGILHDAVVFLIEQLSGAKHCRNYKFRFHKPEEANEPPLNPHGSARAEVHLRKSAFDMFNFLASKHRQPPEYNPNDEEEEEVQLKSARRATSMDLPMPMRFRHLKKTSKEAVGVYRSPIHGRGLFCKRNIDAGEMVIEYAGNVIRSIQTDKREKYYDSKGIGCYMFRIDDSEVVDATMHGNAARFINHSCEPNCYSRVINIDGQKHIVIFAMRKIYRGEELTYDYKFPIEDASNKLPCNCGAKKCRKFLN

Molecule `O=c1cccc2n1[C@@H]1C[C@H](C2)CN(CC(O)CCCc2ccccc2)C1` (stereo partly drawn) had an IC50 on Menin [1] of 1 nM.

As for `NCC(CCN1CC=C(c2ccc(Cl)cc2)CC1)(c1ccccc1)C1CCCC1` (stereo not drawn), at Menin [2], the IC50 came to 830 nM and the Ki was found to be 80 nM.

In assay [3], `CCC(CC)(NC(=O)C(C)C)C(=O)N[C@@H](CCCNC(=N)N)C(=O)NC1(C(=O)NC(c2ccc(Cl)cc2)c2ccc(Cl)cc2)CCCC1` gave an IC50 of 4.5 nM and a Ki below 1 nM.

For `Cc1c(CN2CCC(Nc3ncnc4sc(CC(F)(F)F)cc34)CC2)ccc2c1cc(C#N)n2Cc1cn[nH]c1`, the Kd on Menin [4] turned out to be 9.3 nM. On Menin [5], this molecule had an IC50 of 14.7 nM.

Consider `CN(C)C(=O)C(CCN1CCC(O)(c2ccc(Cl)cc2)CC1)(c1ccccc1)c1ccccc1` [LOPERAMIDE], for which, at Menin [2], the IC50 was 69000 nM.
